Earlier results as cited in patent US5670479A, “α-ketoamide derivatives as inhibitors of thrombosis” (Corvas International, Inc., priority 1994, dated 1997).
Values after ≈ are worked out from the molar mass of the structure shown.

What was measured:
baboons [1] = settings: baboon; dose which gives a 50% inhibition of platelet deposition; other direct antithrombins evaluated earlier in this model; cited from earlier work
baboons [2] = settings: baboon, other direct antithrombins evaluated earlier in this model, cited from earlier work; for Antihemostatic Effects APTT: control 32 sec; for Antihemostatic Effects Bleeding Time: control 4 min
[3] = molecular target: T1, microsomal aminopeptidase (Sus scrofa, UniProt P15145); settings: Ocain et al. 1992; cited from earlier work
T1 sequence (P15145 1-963): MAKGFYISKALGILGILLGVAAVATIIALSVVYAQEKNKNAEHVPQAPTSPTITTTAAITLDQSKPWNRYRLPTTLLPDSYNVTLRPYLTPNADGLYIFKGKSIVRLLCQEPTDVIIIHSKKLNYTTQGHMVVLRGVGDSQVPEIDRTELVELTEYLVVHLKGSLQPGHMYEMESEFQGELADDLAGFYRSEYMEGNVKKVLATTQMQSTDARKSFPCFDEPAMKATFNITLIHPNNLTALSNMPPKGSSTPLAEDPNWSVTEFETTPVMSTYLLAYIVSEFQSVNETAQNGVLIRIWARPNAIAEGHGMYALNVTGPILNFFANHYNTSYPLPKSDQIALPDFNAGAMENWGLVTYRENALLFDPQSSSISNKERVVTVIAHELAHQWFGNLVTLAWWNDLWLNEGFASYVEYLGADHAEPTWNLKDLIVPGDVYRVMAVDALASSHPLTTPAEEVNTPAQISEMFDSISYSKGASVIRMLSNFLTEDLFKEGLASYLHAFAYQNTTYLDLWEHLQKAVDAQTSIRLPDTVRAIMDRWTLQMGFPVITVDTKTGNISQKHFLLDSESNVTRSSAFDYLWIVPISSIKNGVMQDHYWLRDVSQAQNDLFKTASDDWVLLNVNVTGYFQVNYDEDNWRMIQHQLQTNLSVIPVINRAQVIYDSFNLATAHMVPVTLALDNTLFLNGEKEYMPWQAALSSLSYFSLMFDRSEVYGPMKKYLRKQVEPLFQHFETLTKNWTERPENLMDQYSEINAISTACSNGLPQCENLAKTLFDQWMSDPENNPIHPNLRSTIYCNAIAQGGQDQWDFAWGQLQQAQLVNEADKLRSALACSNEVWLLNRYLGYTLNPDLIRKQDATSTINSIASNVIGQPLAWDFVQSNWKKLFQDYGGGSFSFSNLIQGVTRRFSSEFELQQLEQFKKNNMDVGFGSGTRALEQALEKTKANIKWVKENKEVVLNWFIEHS

thrombin [4] = molecular target: thrombin (Homo sapiens, UniProt P00734); settings: reported in literature; cited from earlier work
thrombin [5] = settings: Fusetani et al.; cited from earlier work

Row | Molecule | Antithrombotic Effects ED50 (baboons [1]) | Antihemostatic Effects APTT (baboons [2]) | Antihemostatic Effects Bleeding Time (baboons [2]) | further results
1 | N=C(N)NCCC[C@@H](C=O)NC(=O)[C@@H]1CCCN1C(=O)[C@H](N)Cc1ccccc1 [dF-P-R-al, D-phenylalanyl-prolyl-argininal] | 250 nmol/kg/min | 145 s | 14 min | –
2 | NC(=O)C(=O)C(N)Cc1ccccc1 (centres unmarked) [3-Amino-2-oxo-4-phenylbutanoic acid amide] | – | – | – | Ki [3]: 2500 nM
3 | N-acetyl-D-Phe-Pro Arg-[yC(=O)--CH2 ]--CH2 --CH2 --CH2 --(C=O)-Gln-Ser-His-Asn-Asp-Gly-Asp-Phe-Glu-Glu-Ile-Pro-Glu-Glu-Tyr-Leu-Gln | – | – | – | Ki (thrombin [4]): 0.14 nM
4 | NC(N)=NCCC[C@H](NC(=O)[C@@H]1CCCN1C(=O)[C@H](N)Cc1ccccc1)B(O)O [dF-P-boroR, D-phenyalanyl-prolinyl-boroarginine] | 25 nmol/kg/min | 95 s | 12 min | –
5 | CC1CNc2c(cccc2S(=O)(=O)N[C@@H](CCCNC(=N)N)C(=O)N2CC[C@@H](C)C[C@@H]2C(=O)O)C1 (stereo partly drawn) [Argatroban, 2R,4R-4-methyl-1-[N-2-(3-methyl-1,2,3,4-tetrahydro-8-quinolinesulfonyl)-L-argininal]-2-piperdinecarboxylic acid] | > 800 nmol/kg/min | > 300 s | – | –
6 | N=C(N)NCCC[C@@H]1NC(=O)[C@@H]2CCCN2C(=O)[C@@H](NC=O)CNC(=O)/C=C/[C@H](Cc2ccc(O)cc2)NC(=O)[C@@H](Cc2ccccc2)NC(=O)C1=O [Cyclotheonamide A] | – | – | – | IC50 (thrombin) (thrombin [5]): 76 µg/mL (≈ 104 µM)
